Structure (SMILES) | Aflatoxin B1 [ppb] (Aspergillus parasiticus) | Aflatoxin B1 [ppb] (Aspergillus flavus)
CON=C(C(=O)OC)c1ccccc1CON=C(C)c1cccc(C(F)(F)F)c1 [Trifloxystrobin] | 9775 | 375
N#Cc1c[nH]cc1-c1cccc2c1OC(F)(F)O2 [Fludioxonil] | 17390 | 1230
CC(C)(C)C(O)(CCc1ccc(Cl)cc1)Cn1cncn1 (centres unmarked) [Tebuconazole] | 4545 | 2445
OC(Cc1ccccc1Cl)(Cn1nc[nH]c1=S)C1(Cl)CC1 (centres unmarked) [Prothioconazole] | 37785 | 865
